{
  "source": "patent US12532882B2",
  "about": "“Biocide composition and methods of use” (priority 2017, dated 2026)",
  "key": {"seeds": {"system": "seeds", "assay": "Seed germination in soils saturated with product", "conditions": "soils saturated with 2% solution"}, "clubroot spores": {"system": "clubroot spores", "assay": "Clubroot resting spore mortality by Evans blue staining (Example 2)", "conditions": "positive control, 2% concentration"}, "clubroot resting spores [1]": {"system": "clubroot resting spores", "assay": "Clubroot resting spore mortality by Evans blue staining (Example 5)", "conditions": "all concentrations above 1.5%"}, "clubroot resting spores [2]": {"system": "clubroot resting spores", "assay": "Clubroot resting spore mortality by Evans blue staining, separate test with AES-100", "conditions": "all concentrations above 1.5%"}},
  "data": [
    {"compound": "OCl", "note": "[sodium hypochlorite]", "values": [
      {"measurement": "seed germination", "setting": "seeds", "result": "no seeds germinated"},
      {"measurement": "resting spore mortality", "setting": "clubroot spores", "result": 100, "unit": "%"},
      {"measurement": "mortality of clubroot resting spores", "setting": "clubroot resting spores [1]", "result": 100, "unit": "%"},
      {"measurement": "mortality of clubroot resting spores", "setting": "clubroot resting spores [2]", "result": 100, "unit": "%"}
    ]}
  ]
}
